Experimental data published in patent US12139492B2 (Endotarget Inc., priority 2021, dated 2024).
Where two headings read alike, the source gives them in different places.

Tests used:
[1] = tested on: Mino cells; assay: Antiproliferative effect, MTS cell viability assay, Mino cells; type: cell-based; conditions: Homo sapiens, MINO, Mino mantle cell lymphoma cells; read-out: IC50 (anti-proliferation) Mino cells
Procedure, shortened: (§1)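 Cells were exposed to compound at 0, 0.001, 0.01, 0.1, 1 and 10 μM for 72 h. Viability was then measured by MTS assay, reading formazan produced by metabolically active cells as absorbance at 490 nm.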

[2] = tested on: JeKo-1 cells; assay: Antiproliferative effect, MTS cell viability assay, JeKo-1 cells; type: cell-based; conditions: Homo sapiens; JeKo-1 mantle cell lymphoma cells; read-out: IC50 (anti-proliferation) JeKO-1 cells
Procedure, shortened: as §1

[3] = target: BTK (Homo sapiens, UniProt Q06187); assay: Degradation of BTK protein in Namalwa cells (Western blot; DC50, Dmax); conditions: for DC50: cell line not given
Chain of BTK (Q06187 whole entry): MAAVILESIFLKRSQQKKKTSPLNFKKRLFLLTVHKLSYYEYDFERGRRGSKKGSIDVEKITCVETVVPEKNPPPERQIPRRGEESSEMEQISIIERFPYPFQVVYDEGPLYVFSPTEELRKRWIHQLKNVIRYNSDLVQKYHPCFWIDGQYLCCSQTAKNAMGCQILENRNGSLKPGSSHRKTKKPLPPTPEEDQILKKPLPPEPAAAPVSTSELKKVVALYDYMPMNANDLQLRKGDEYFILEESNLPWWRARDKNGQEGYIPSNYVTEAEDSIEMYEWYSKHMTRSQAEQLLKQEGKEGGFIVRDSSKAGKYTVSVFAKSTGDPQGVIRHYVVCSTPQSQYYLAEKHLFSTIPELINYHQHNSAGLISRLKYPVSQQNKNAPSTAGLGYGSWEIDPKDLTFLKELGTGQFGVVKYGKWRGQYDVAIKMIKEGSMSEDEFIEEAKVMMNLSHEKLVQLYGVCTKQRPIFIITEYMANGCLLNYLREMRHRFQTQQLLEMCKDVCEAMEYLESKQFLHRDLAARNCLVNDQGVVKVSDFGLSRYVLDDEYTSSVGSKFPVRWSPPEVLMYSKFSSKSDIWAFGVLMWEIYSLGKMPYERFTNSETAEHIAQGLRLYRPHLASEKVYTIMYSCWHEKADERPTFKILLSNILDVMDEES

[4] = read-out: DC50 (BTK degradation), concentration giving 50% reduction of BTK expression level
[5] = read-out: Dmax (BTK degradation)

Row | Compound | Dmax [3] [%] | DC50 ([3]; BTK degradation) [nM] | DC50 [3, 4] [nM] | Dmax [3, 5] [%] | degradation of BTK protein ([3]; Namalwa B lymphocyte cells, various concentrations, 24 hours, Western blot) | IC50 [1] [nM] | IC50 [2] [nM]
1 | NC(=O)c1c(-c2ccc(Oc3ccccc3)cc2)nn2c1NCCC2C1CCN(C(=O)N2CCN(CCN3CCC(c4ccc5c(c4)CN(C4CCC(=O)NC4=O)C5=O)CC3)CC2)CC1 (stereo not shown) [Compound 288, 7-(1-(4-(2-(4-(2-(2,6-dioxopiperidin-3-yl)-1-oxoisoindolin-5-yl)piperidin-1-yl)ethyl)piperazine-1-carbonyl)piperidin-4-yl)-2-(4-phenoxyphenyl)-4,5,6,7-tetrahydropyrazolo[1,5-a]pyrimidine-3-carboxamide] | > 75 | 10 to 50 |  |  |  | 1000 to 10000 | 1000 to 10000
2 | NC(=O)c1c(-c2ccc(Oc3ccccc3)cc2)nn2c1NCCC2C1CCN(CC2CCN(C(=O)N3CCN(c4ccc5c(c4)C(=O)N(C4CCC(=O)NC4=O)C5=O)CC3)CC2)CC1 (stereo not shown) [Compound 357, 7-(1-((1-(4-(2-(2,6-dioxopiperidin-3-yl)-1,3-dioxoisoindolin-5-yl)piperazine-1-carbonyl)piperidin-4-yl)methyl)piperidin-4-yl)-2-(4-phenoxyphenyl)-4,5,6,7-tetrahydropyrazolo[1,5-a]pyrimidine-3-carboxamide] | > 50 | > 50 |  |  |  | > 10000 | > 10000
3 | NC(=O)c1c(-c2ccc(Oc3ccccc3)cc2)nn2c1NCC[C@H]2C1CCN(CC2CCN(C(=O)N3CCC(C4CCN(c5ccc6c(c5)CN(C5CCC(=O)NC5=O)C6=O)CC4)CC3)CC2)CC1 (stereo partly drawn) [Compound 406, (7S)-7-(1-((1-(1′-(2-(2,6-dioxopiperidin-3-yl)-1-oxoisoindolin-5-yl)-[4,4′-bipiperidine]-1-carbonyl)piperidin-4-yl)methyl)piperidin-4-yl)-2-(4-phenoxyphenyl)-4,5,6,7-tetrahydropyrazolo[1,5-a]pyrimidine-3-carboxamide] |  |  | < 10 | > 90 |  | < 1000 | 1000 to 10000

Now from value to compound, other results behind:

Row | Dmax [3] [%] | DC50 ([3]; BTK degradation) [nM] | DC50 [3, 4] [nM] | Dmax [3, 5] [%] | degradation of BTK protein ([3]; Namalwa B lymphocyte cells, various concentrations, 24 hours, Western blot) | Compound | IC50 [1] [nM] | IC50 [2] [nM]
4 |  |  | 10 to 50 | > 90 |  | Nc1ncnc2c1c(-c1ccc(Oc3ccccc3)cc1)nn2C1CCN(C[C@H]2CCN(CC3CN(c4ccc5c(c4)C(=O)N(C4CCC(=O)NC4=O)C5=O)C3)C2)CC1 (stereo partly drawn) [Compound 423a, 5-(3-(((R)-3-((4-(4-amino-3-(4-phenoxyphenyl)-1H-pyrazolo[3,4-d]pyrimidin-1-yl)piperidin-1-yl)methyl)pyrrolidin-1-yl)methyl)azetidin-1-yl)-2-(2,6-dioxopiperidin-3-yl)isoindoline-1,3-dione] | < 1000 | 1000 to 10000
5 | > 90 | 10 to 50 |  |  |  | NC(=O)c1c(-c2ccc(Oc3ccccc3)cc2)nn2c1NCCC2C1CCN(CCOCCOCCN2CCN(c3ccc4c(c3)C(=O)N(C3CCC(=O)NC3=O)C4=O)CC2)CC1 (stereo not shown) [Compound 269, 7-(1-(2-(2-(2-(4-(2-(2,6-dioxopiperidin-3-yl)-1,3-dioxoisoindolin-5-yl)piperazin-1-yl)ethoxy)ethoxy)ethyl)piperidin-4-yl)-2-(4-phenoxyphenyl)-4,5,6,7-tetrahydropyrazolo[1,5-a]pyrimidine-3-carboxamide] | > 10000 | > 10000
6 |  |  | < 10 | > 90 | dose-dependent degradation | Nc1ncnc2c1c(-c1ccc(Oc3ccccc3)cc1)nn2[C@@H]1CCCN(C2CCN(C(=O)N3CC(N4CCN(c5ccc6c(c5)CN(C5CCC(=O)NC5=O)C6=O)CC4)C3)CC2)C1 (stereo partly drawn) [Compound 476, 3-(5-(4-(1-((R)-3-(4-amino-3-(4-phenoxyphenyl)-1H-pyrazolo[3,4-d]pyrimidin-1-yl)-[1,4′-bipiperidine]-1′-carbonyl)azetidin-3-yl)piperazin-1-yl)-1-oxoisoindolin-2-yl)piperidine-2,6-dione] | < 1000 | < 1000
